Measured values published in ChEMBL document CHEMBL3885861, “Open TG-GATES”.

Organism: Rattus norvegicus
Experiment: Open TG-GATES - Regimen: Single
Format: toxicity, organism-based, Sprague-Dawley
Set-up: regimen Single, gender Male, age 6 weeks
Details: in vivo, po, 30 mg/kg, route gavage, dose level Middle; for APTT / Bas / Eos / Fbg / Hb / Ht / Lym / MCH / MCHC / MCV / Mono / Neu / PT / Plat / RBC / Ret / WBC: tissue Blood; for KIDNEY_L / KIDNEY_R / KIDNEY_TOTAL: tissue Kidney; for LIVER: tissue Liver; for A/G / ALP / ALT / AST / BUN / CRE / Ca / Cl / DBIL / GLC / IP / K / LDH / Na / PL / RALB / TBIL / TC / TG / TP / gamma-GTP: tissue Plasma

SMILES: CCCc1cc(=O)[nH]c(=S)[nH]1 [PROPYLTHIOURACIL]
- TERMINAL_BW (3 h): 179.8 g
- APTT (3 h): 16 s
- Bas (3 h): 0%
- Eos (3 h): 1%
- Fbg (3 h): 211.4 mg/dL
- Hb (3 h): 13.2 g/dL
- Ht (3 h): 40%
- Lym (3 h): 80.2%
- MCH (3 h): 22.2 pg
- MCHC (3 h): 33%
- MCV (3 h): 67.2 fL
- Mono (3 h): 5.6%
- Neu (3 h): 13.6%
- PT (3 h): 12.8 s
- Plat (3 h): 100.4 x10_4/uL
- RBC (3 h): 595.4 x10_4/ul
- Ret (3 h): 10.1%
- WBC (3 h): 101.6 x10_2/uL
- KIDNEY_L (3 h): 0.8 g
- KIDNEY_R (3 h): 0.8 g
- KIDNEY_TOTAL (3 h): 1.7 g
- LIVER (3 h): 8.4 g
- A/G (3 h): 2
- ALP (3 h): 1017.6 IU/L
- ALT (3 h): 32.6 IU/L
- AST (3 h): 65.4 IU/L
- BUN (3 h): 12 mg/dL
- CRE (3 h): 0.4 mg/dL
- Ca (3 h): 11.2 mg/dL
- Cl (3 h): 105.2 meq/L
- DBIL (3 h): 0.042 mg/dL
- GLC (3 h): 193.6 mg/dL
- IP (3 h): 10.8 mg/dL
- K (3 h): 4.4 meq/L
- LDH (3 h): 86.6 IU/L
- Na (3 h): 138.2 meq/L
- PL (3 h): 135 mg/dL
- RALB (3 h): 3.6 g/dL
- TBIL (3 h): 0.3 mg/dL
- TC (3 h): 77.2 mg/dL
- TG (3 h): 30.6 mg/dL
- TP (3 h): 5.5 g/dL
- gamma-GTP (3 h): 1.2 IU/L
- TERMINAL_BW (6 h): 177.6 g
- APTT (6 h): 16.2 s
- Bas (6 h): 0%
- Eos (6 h): 1%
- Fbg (6 h): 208.8 mg/dL
- Hb (6 h): 13.2 g/dL
- Ht (6 h): 39.3%
- Lym (6 h): 77.2%
- MCH (6 h): 22.2 pg
- MCHC (6 h): 33.5%
- MCV (6 h): 66.3 fL
- Mono (6 h): 6.8%
- Neu (6 h): 15.2%
- PT (6 h): 12.7 s
- Plat (6 h): 107.3 x10_4/uL
- RBC (6 h): 593.4 x10_4/ul
- Ret (6 h): 10.5%
- WBC (6 h): 83.3 x10_2/uL
- KIDNEY_L (6 h): 0.8 g
- KIDNEY_R (6 h): 0.9 g
- KIDNEY_TOTAL (6 h): 1.7 g
- LIVER (6 h): 8.1 g
- A/G (6 h): 2
- ALP (6 h): 892.6 IU/L
- ALT (6 h): 31.8 IU/L
- AST (6 h): 63.8 IU/L
- BUN (6 h): 12.8 mg/dL
- CRE (6 h): 0.5 mg/dL
- Ca (6 h): 11.2 mg/dL
- Cl (6 h): 105 meq/L
- DBIL (6 h): 0.062 mg/dL
- GLC (6 h): 182 mg/dL
- IP (6 h): 10.8 mg/dL
- K (6 h): 4.9 meq/L
- LDH (6 h): 89.6 IU/L
- Na (6 h): 138.4 meq/L
- PL (6 h): 127.4 mg/dL
- RALB (6 h): 3.7 g/dL
- TBIL (6 h): 0.3 mg/dL
- TC (6 h): 70.4 mg/dL
- TG (6 h): 36.4 mg/dL
- TP (6 h): 5.5 g/dL
- gamma-GTP (6 h): 1.8 IU/L
- TERMINAL_BW (9 h): 178.7 g
- APTT (9 h): 15.7 s
- Bas (9 h): 0%
- Eos (9 h): 1.6%
- Fbg (9 h): 216 mg/dL
- Hb (9 h): 13.3 g/dL
- Ht (9 h): 40%
- Lym (9 h): 73.4%
- MCH (9 h): 22.1 pg
- MCHC (9 h): 33.2%
- MCV (9 h): 66.6 fL
- Mono (9 h): 8.2%
- Neu (9 h): 17%
- PT (9 h): 12.7 s
- Plat (9 h): 102.7 x10_4/uL
- RBC (9 h): 601.2 x10_4/ul
- Ret (9 h): 9.8%
- WBC (9 h): 64.5 x10_2/uL
- KIDNEY_L (9 h): 0.9 g
- KIDNEY_R (9 h): 0.9 g
- KIDNEY_TOTAL (9 h): 1.7 g
- LIVER (9 h): 7.5 g
- A/G (9 h): 1.9
- ALP (9 h): 878.2 IU/L
- ALT (9 h): 30.4 IU/L
- AST (9 h): 61.6 IU/L
- BUN (9 h): 12.2 mg/dL
- CRE (9 h): 0.5 mg/dL
- Ca (9 h): 10.5 mg/dL
- Cl (9 h): 106.4 meq/L
- DBIL (9 h): 0 mg/dL
- GLC (9 h): 194.2 mg/dL
- IP (9 h): 10.6 mg/dL
- K (9 h): 4.7 meq/L
- LDH (9 h): 92.4 IU/L
- Na (9 h): 138.8 meq/L
- PL (9 h): 131 mg/dL
- RALB (9 h): 3.6 g/dL
- TBIL (9 h): 0.5 mg/dL
- TC (9 h): 77.6 mg/dL
- TG (9 h): 33.8 mg/dL
- TP (9 h): 5.5 g/dL
- gamma-GTP (9 h): 1 IU/L
- TERMINAL_BW (24 h): 189 g
- APTT (24 h): 16 s
- Bas (24 h): 0%
- Eos (24 h): 1%
- Fbg (24 h): 206.6 mg/dL
- Hb (24 h): 13.6 g/dL
- Ht (24 h): 40.7%
- Lym (24 h): 78%
- MCH (24 h): 21.9 pg
- MCHC (24 h): 33.5%
- MCV (24 h): 65.2 fL
- Mono (24 h): 9%
- Neu (24 h): 12.4%
- PT (24 h): 12.3 s
- Plat (24 h): 101.4 x10_4/uL
- RBC (24 h): 623.4 x10_4/ul
- Ret (24 h): 9.1%
- WBC (24 h): 101.7 x10_2/uL
- KIDNEY_L (24 h): 0.9 g
- KIDNEY_R (24 h): 0.9 g
- KIDNEY_TOTAL (24 h): 1.7 g
- LIVER (24 h): 9.5 g
- A/G (24 h): 2
- ALP (24 h): 911.4 IU/L
- ALT (24 h): 40.8 IU/L
- AST (24 h): 65 IU/L
- BUN (24 h): 16.8 mg/dL
- CRE (24 h): 0.5 mg/dL
- Ca (24 h): 11 mg/dL
- Cl (24 h): 106.8 meq/L
- DBIL (24 h): 0.018 mg/dL
- GLC (24 h): 185.4 mg/dL
- IP (24 h): 7.1 mg/dL
- K (24 h): 5 meq/L
- LDH (24 h): 90.6 IU/L
- Na (24 h): 139.8 meq/L
- PL (24 h): 157.4 mg/dL
- RALB (24 h): 3.8 g/dL
- TBIL (24 h): 0.3 mg/dL
- TC (24 h): 85.2 mg/dL
- TG (24 h): 112 mg/dL
- TP (24 h): 5.7 g/dL
- gamma-GTP (24 h): 1.2 IU/L
